Series [1] is described as follows: Compound cytotoxicity, XTT-based colorimetric assay. The format is cell-based. Conditions: human; uninfected MT2 cells, day 4, XTT assay. In a few lines: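 Run under the antiviral-assay protocol but without virus. Viability was read on day 4 and CC50 values were derived from the readout.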
A further series relates to recombinant NL4-3 virus. Nature of the series: HIV cell culture assay (antiviral activity, luciferase readout). Type of series: cell-based. Conditions: Human immunodeficiency virus 1, NL43, MT2, MT-2 cells infected for 4-5 days with recombinant NL4-3 virus carrying Renilla luciferase. In a few lines:
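MT-2 cells infected for 4-5 days with NL4-3 reference virus carrying Renilla luciferase in place of part of nef, in presence of serial compound dilutions. Luciferase read with live-cell substrate; EC50 from median effect equation fit.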

SMILES strings stand for the structures. pEC50: −log10 of the molar value.

Compound `COc1cncc(-c2ccc3c(=O)n(-c4ccc(Cl)c5c(NS(C)(=O)=O)nn(C)c45)c([C@H](Cc4cc(F)cc(F)c4)NC(=O)Cn4nc(C(F)F)c5c4C(F)(F)[C@@H]4C[C@H]54)nc3n2)c1` (atropisomer, axis not shown; (P)) [Example 51, N-((S)-1-((3P)-3-(4-chloro-1-methyl-3-(methylsulfonamido)-1H-indazol-7-yl)-7-(5-methoxypyridin-3-yl)-4-oxo-3,4-dihydropyrido[2,3-d]pyrimidin-2-yl)-2-(3,5-difluorophenyl)ethyl)-2-((3bS,4aR)-3-(difluoromethyl)-5,5-difluoro-3b,4,4a,5-tetrahydro-1H-cyclopropa[3,4]cyclopenta[1,2-c]pyrazol-1-yl)acetamide] returned a CC50 at 4 day in series [1] of more than 100 nM. For the same compound, the pEC50 in the series on recombinant NL4-3 virus was 10.07.

In the case of `Cn1nc(NS(C)(=O)=O)c2c(Cl)ccc(-n3c([C@H](Cc4cc(F)cc(F)c4)NC(=O)Cn4nc(C(F)F)c5c4C(F)(F)[C@@H]4C[C@H]54)nc4nc(-c5ccc(F)cc5C(F)(F)F)ccc4c3=O)c21` (atropisomer, axis not shown; (P)) [Example 22, N-((S)-1-((3P)-3-(4-chloro-1-methyl-3-(methylsulfonamido)-1H-indazol-7-yl)-7-(4-fluoro-2-(trifluoromethyl)phenyl)-4-oxo-3,4-dihydropyrido[2,3-d]pyrimidin-2-yl)-2-(3,5-difluorophenyl)ethyl)-2-((3bS,4aR)-3-(difluoromethyl)-5,5-difluoro-3b,4,4a,5-tetrahydro-1H-cyclopropa[3,4]cyclopenta[1,2-c]pyrazol-1-yl)acetamide], the CC50 at 4 day in series [1] was more than 100 nM. Also, the negative-log EC50 (pEC50) in the series on recombinant NL4-3 virus is 10.28.

As to `Cn1nc(NS(C)(=O)=O)c2c(Cl)ccc(-n3c([C@H](Cc4cc(F)cc(F)c4)NC(=O)Cn4nc(C(F)F)c5c4C(F)(F)[C@@H]4C[C@H]54)nc4nc(-c5ccc6ncsc6c5)ccc4c3=O)c21` (atropisomer, axis not shown; (P)) [Example 71, N-((S)-1-(7-(benzo[d]thiazol-6-yl)-(3P)-3-(4-chloro-1-methyl-3-(methylsulfonamido)-1H-indazol-7-yl)-4-oxo-3,4-dihydropyrido[2,3-d]pyrimidin-2-yl)-2-(3,5-difluorophenyl)ethyl)-2-((3bS,4aR)-3-(difluoromethyl)-5,5-difluoro-3b,4,4a,5-tetrahydro-1H-cyclopropa[3,4]cyclopenta[1,2-c]pyrazol-1-yl)acetamide], the 50% cytotoxic concentration (CC50) at 4 day in series [1] was more than 100 nM. In the series with recombinant NL4-3 virus, the negative logarithm of the EC50 (pEC50) was 10.01.

Compound `Cn1nc(NS(C)(=O)=O)c2c(Cl)ccc(-n3c([C@H](Cc4cc(F)cc(F)c4)NC(=O)Cn4nc(C(F)F)c5c4C(F)(F)[C@@H]4C[C@H]54)nc4nc(-c5cncc(Cl)c5)ccc4c3=O)c21` (atropisomer, axis not shown; (P)) [Example 29, N-((S)-1-((3P)-3-(4-chloro-1-methyl-3-(methylsulfonamido)-1H-indazol-7-yl)-7-(5-chloropyridin-3-yl)-4-oxo-3,4-dihydropyrido[2,3-d]pyrimidin-2-yl)-2-(3,5-difluorophenyl)ethyl)-2-((3bS,4aR)-3-(difluoromethyl)-5,5-difluoro-3b,4,4a,5-tetrahydro-1H-cyclopropa[3,4]cyclopenta[1,2-c]pyrazol-1-yl)acetamide] returned a CC50 at 4 day in series [1] of more than 100 nM. Further, in the series on recombinant NL4-3 virus, the negative-log EC50 (pEC50) was 10.24.

The compound `Cn1nc(NS(C)(=O)=O)c2c(Cl)ccc(-n3c([C@H](Cc4cc(F)cc(F)c4)NC(=O)Cn4nc(C(F)F)c5c4C(F)(F)[C@@H]4C[C@H]54)nc4nc(-c5cnccn5)ccc4c3=O)c21` (atropisomer, axis not shown; (P)) [Example 8, N-((S)-1-((3P)-3-(4-chloro-1-methyl-3-(methylsulfonamido)-1H-indazol-7-yl)-4-oxo-7-(pyrazin-2-yl)-3,4-dihydropyrido[2,3-d]pyrimidin-2-yl)-2-(3,5-difluorophenyl)ethyl)-2-((3bS,4aR)-3-(difluoromethyl)-5,5-difluoro-3b,4,4a,5-tetrahydro-1H-cyclopropa[3,4]cyclopenta[1,2-c]pyrazol-1-yl)acetamide] gave a CC50 at 4 day in series [1] of more than 100 nM. For the same compound, the negative-log EC50 (pEC50) in the series with recombinant NL4-3 virus is 10.72.

`Cc1cc(C)nc(-c2ccc3c(=O)n(-c4ccc(Cl)c5c(NS(C)(=O)=O)nn(C)c45)c([C@H](Cc4cc(F)cc(F)c4)NC(=O)Cn4nc(C(F)F)c5c4C(F)(F)[C@@H]4C[C@H]54)nc3n2)n1` (atropisomer, axis not shown; (P)) [Example 11, N-((S)-1-((3P)-3-(4-chloro-1-methyl-3-(methylsulfonamido)-1H-indazol-7-yl)-7-(4,6-dimethylpyrimidin-2-yl)-4-oxo-3,4-dihydropyrido[2,3-d]pyrimidin-2-yl)-2-(3,5-difluorophenyl)ethyl)-2-((3bS,4aR)-3-(difluoromethyl)-5,5-difluoro-3b,4,4a,5-tetrahydro-1H-cyclopropa[3,4]cyclopenta[1,2-c]pyrazol-1-yl)acetamide]: the 50% cytotoxic concentration (CC50) at 4 day in series [1] was more than 100 nM. Also, the negative logarithm of the EC50 (pEC50) in the series on recombinant NL4-3 virus was 10.44.

As to `Cn1nc(NS(C)(=O)=O)c2c(Cl)ccc(-n3c([C@H](Cc4cc(F)cc(F)c4)NC(=O)Cn4nc(C(F)F)c5c4C(F)(F)[C@@H]4C[C@H]54)nc4nc(-c5ccnnc5)ccc4c3=O)c21` (atropisomer, axis not shown; (P)) [Example 33, N-((S)-1-((3P)-3-(4-chloro-1-methyl-3-(methylsulfonamido)-1H-indazol-7-yl)-4-oxo-7-(pyridazin-4-yl)-3,4-dihydropyrido[2,3-d]pyrimidin-2-yl)-2-(3,5-difluorophenyl)ethyl)-2-((3bS,4aR)-3-(difluoromethyl)-5,5-difluoro-3b,4,4a,5-tetrahydro-1H-cyclopropa[3,4]cyclopenta[1,2-c]pyrazol-1-yl)acetamide], in series [1], the CC50 at 4 day is more than 100 nM. Further, the pEC50 with recombinant NL4-3 virus is 9.35.

Regarding `Cn1nc(NS(C)(=O)=O)c2c(Cl)ccc(-n3c([C@H](Cc4cc(F)cc(F)c4)NC(=O)Cn4nc(C(F)F)c5c4C(F)(F)[C@@H]4C[C@H]54)nc4nc(-c5ccnn5CC5CC5)ccc4c3=O)c21` (atropisomer, axis not shown; (P)) [Example 78, N-((S)-1-((3P)-3-(4-chloro-1-methyl-3-(methylsulfonamido)-1H-indazol-7-yl)-7-(1-(cyclopropylmethyl)-1H-pyrazol-5-yl)-4-oxo-3,4-dihydropyrido[2,3-d]pyrimidin-2-yl)-2-(3,5-difluorophenyl)ethyl)-2-((3bS,4aR)-3-(difluoromethyl)-5,5-difluoro-3b,4,4a,5-tetrahydro-1H-cyclopropa[3,4]cyclopenta[1,2-c]pyrazol-1-yl)acetamide], the half-maximal cytotoxic concentration (CC50) at 4 day in series [1] was more than 100 nM. Besides, the pEC50 in the series on recombinant NL4-3 virus is 10.05.

On to `Cn1nc(NS(C)(=O)=O)c2c(Cl)ccc(-n3c([C@H](Cc4cc(F)cc(F)c4)NC(=O)Cn4nc(C(F)F)c5c4C(F)(F)[C@@H]4C[C@H]54)nc4nc(-n5ccnc5)ccc4c3=O)c21` (atropisomer, axis not shown; (P)) [Example 64, N-((S)-1-((3P)-3-(4-chloro-1-methyl-3-(methylsulfonamido)-1H-indazol-7-yl)-7-(1H-imidazol-1-yl)-4-oxo-3,4-dihydropyrido[2,3-d]pyrimidin-2-yl)-2-(3,5-difluorophenyl)ethyl)-2-((3bS,4aR)-3-(difluoromethyl)-5,5-difluoro-3b,4,4a,5-tetrahydro-1H-cyclopropa[3,4]cyclopenta[1,2-c]pyrazol-1-yl)acetamide], for which the half-maximal cytotoxic concentration (CC50) at 4 day in series [1] was more than 100 nM. For the same compound, in the series on recombinant NL4-3 virus, the negative-log EC50 (pEC50) was 9.28.

With `Cn1nc(NS(C)(=O)=O)c2c(Cl)ccc(-n3c([C@H](Cc4cc(F)cc(F)c4)NC(=O)Cn4nc(C(F)F)c5c4C(F)(F)[C@@H]4C[C@H]54)nc4nc(-n5cnc(C(F)(F)F)n5)ccc4c3=O)c21` (atropisomer, axis not shown; (P)) [Example 80, N-((S)-1-((3P)-3-(4-chloro-1-methyl-3-(methylsulfonamido)-1H-indazol-7-yl)-4-oxo-7-(3-(trifluoromethyl)-1H-1,2,4-triazol-1-yl)-3,4-dihydropyrido[2,3-d]pyrimidin-2-yl)-2-(3,5-difluorophenyl)ethyl)-2-((3bS,4aR)-3-(difluoromethyl)-5,5-difluoro-3b,4,4a,5-tetrahydro-1H-cyclopropa[3,4]cyclopenta[1,2-c]pyrazol-1-yl)acetamide], the 50% cytotoxic concentration (CC50) at 4 day in series [1] was more than 100 nM. For the same compound, the negative-log EC50 (pEC50) with recombinant NL4-3 virus was 10.55.

In series [1], `Cn1nc(NS(C)(=O)=O)c2c(Cl)ccc(-n3c([C@H](Cc4cc(F)cc(F)c4)NC(=O)Cn4nc(C(F)F)c5c4C(F)(F)[C@@H]4C[C@H]54)nc4nc(-c5nccnc5Cl)ccc4c3=O)c21` (atropisomer, axis not shown; (P)) [Example 61, N-((S)-1-((3P)-3-(4-chloro-1-methyl-3-(methylsulfonamido)-1H-indazol-7-yl)-7-(3-chloropyrazin-2-yl)-4-oxo-3,4-dihydropyrido[2,3-d]pyrimidin-2-yl)-2-(3,5-difluorophenyl)ethyl)-2-((3bS,4aR)-3-(difluoromethyl)-5,5-difluoro-3b,4,4a,5-tetrahydro-1H-cyclopropa[3,4]cyclopenta[1,2-c]pyrazol-1-yl)acetamide] gave a 50% cytotoxic concentration (CC50) at 4 day of more than 100 nM. Further, the pEC50 in the series with recombinant NL4-3 virus is 10.60.

For `Cn1nc(NS(C)(=O)=O)c2c(Cl)ccc(-n3c([C@H](Cc4cc(F)cc(F)c4)NC(=O)Cn4nc(C(F)F)c5c4C(F)(F)[C@@H]4C[C@H]54)nc4nc(-c5ccc6ocnc6c5)ccc4c3=O)c21` (atropisomer, axis not shown; (P)) [Example 81, N-((S)-1-(7-(benzo[d]oxazol-5-yl)-(3P)-3-(4-chloro-1-methyl-3-(methylsulfonamido)-1H-indazol-7-yl)-4-oxo-3,4-dihydropyrido[2,3-d]pyrimidin-2-yl)-2-(3,5-difluorophenyl)ethyl)-2-((3bS,4aR)-3-(difluoromethyl)-5,5-difluoro-3b,4,4a,5-tetrahydro-1H-cyclopropa[3,4]cyclopenta[1,2-c]pyrazol-1-yl)acetamide], the CC50 at 4 day in series [1] was more than 100 nM. For the same compound, the negative logarithm of the EC50 (pEC50) with recombinant NL4-3 virus was 10.09.

By CC50 is commonly meant the concentration that lowers cell viability or growth by half. High values mean lower toxicity to the cells, low ones greater toxicity to the cells. Usually pEC50 stands for the negative decadic logarithm of the EC50, by convention in mol/L.

Values taken from patent US20220389007A1, “INHIBITORS OF HUMAN IMMUNODEFICIENCY VIRUS REPLICATION” (VIIV HEALTHCARE UK (No. 5) LIMITED, priority 2019, published 2022).
